# Test results taken from patent US20060128724A1, “Pyrazole-substituted aminoheteroaryl compounds as protein kinase inhibitors” (AGOURON PHARMACEUTICALS, INC., priority 2004, published 2006).
# Target: T1, c-MET (HGFR) (Homo sapiens, UniProt P08581)
# T1 construct: purchased Upstate 14-526
# Assay: HGFR Continuous-Coupled Spectrophotometric Assay
# Type: biochemical
# Conditions: Met-2 substrate peptide, 50 nM HGFR, 37° C.; read-out: c-Met Ki
# From the text: The following in vitro assay may be used to determine the level of activity and effect of the different compounds of the present invention on one or more of the PKs. Similar assays can be designed along the same lines for any PK using techniques well known in the art.
# The general procedure is as follows: compounds and kinase assay reagents are introduced into test wells. The assay is initiated by addition of the kinase enzyme. Enzyme inhibitors reduce the measured activity of the enzyme.
# In the continuous-coupled spectrophotometric assay the time-dependent production of ADP by the kinase is determined by analysis of the rate of consumption of NADH by measurement of the decrease in absorbance at 340 nm. As the PK produces ADP it is re-converted to ATP by reaction with phosphoenol pyruvate and pyruvate kinase. Pyruvate is also produced in this reaction. Pyruvate is subsequently converted to lactate by reaction with lactate dehydrogenase, which simultaneously converts NADH to NAD.
# HGFR Continuous-Coupled Spectrophotometric Assay
# This assay analyzes the tyrosine kinase activity of HGFR on the Met-2 substrate peptide, a peptide derived from the activation loop of the HGFR.
# • 1. […] Dissolve up in 200 mM HEPES, pH 7.5 at 10 mM stock. • 3. 1 M PEP (phospho-enol-pyruvate) in 200 mM HEPES, pH 7.5 • 4. 100 mM NADH (B-Nicotinamide Adenine Dinucleotide, Reduced Form) in 200 mM HEPES, pH 7.5 • 5. 4 M MgCl2 (Magnesium Chloride) in ddH2O • 6. 1 M DTT (Dithiothreitol) in 200 mM HEPES, pH 7.5 • 7. 15 Units/mL LDH (Lactic Dehydrogenase) • 8. 15 Units/mL PK (Pyruvate Kinase) • 9. 5M NaCl dissolved in ddH2O • 10. Tween-20 (Protein Grade) 10% Solution • 11. 1 M HEPES buffer: (N-[2-Hydroxethyl]piperazine-N-[2-ethanesulfonic acid]) Sodium Salt. Dissolve in ddH2O, adjust pH to 7.5, bring volume to 1 L. Filter at 0.1 μm. • 12. […] 100% DMSO (SIGMA) • 14. […] Beckman DU-650 w/micro cell holders • 18. Beckman 4-position micro cell cuvette Procedure:
# Prep Dilution Buffer (DB) for Enzyme (For 30 mL prep) • 1. DB final concentration is 2 mM DTT, 25 mM NaCl2, 5 mM MgCl2, 0.01% Tween-20, and 50 mM HEPES buffer, pH 7.5. • 2. Make up 50 mM HEPES by adding 1.5 mL 1 M HEPES into 28.1 mL of ddH2O. Add rest of the reagents. Into 50 mL conical vial, add 60 μL of 1M DTT, 150 μL 5M NaCl2, 150 μL 1M MgCl2, and 30 μL of 10% Tween-20 to give total volume of 30 mL. • 3. […] Aliquot out DB at 1 mL/tube and label tubes as “DB HGFR” • 5. Note: This can be prepared and stored ahead of time. • 6. Freeze un-used aliquots in microcentrifuge tubes at −20° C. freezer. […] For compound dilution plate, add 4 μL of 10 mM stock into column 1 of plate, and bring volume to 100 μL with 100% DMSO. • 2. Set up the Precision 2000 dilution method. A final concentration of 200 μM compound in 50% DMSO, 100 mM HEPES (1:2 serial dilution). Prep Coupled Enzymatic Buffer:
# 1. Final concentration in assay:
# • 2. For a 10 mL reaction buffer add 10 μL of 1M PEP, 33 μL of 100 mM NADH, 50 μL of 4M MgCl2, 20 μL of 1M DTT, 6 μL of 500 mM ATP, and 500 μL of 10 mM Met-2 peptide into 100 mM HEPES buffer pH 7.5 and vortex/mix. • 3. Add coupling enzymes, LDH and PK, into reaction mix. Mix by gentle inversion. Running Samples
# 1. Spectrophotometer settings:
# • 2. Add 85 μL of CE reaction mix into each well of assay plate. • 3. Add 5 μL of diluted compound into a well of the assay plate. • 4. Add 5 μL of 50% DMSO for negative control into last column of assay plate. • 5. Mix with multi-channel pipettor or orbital shaker. • 6. Pre-incubate for 10 minutes at 37° C. • 7. Add 10 μL of 500 nM HGFR to each well of assay plate; the final HGFR concentration is 50 nM in a total final volume of 100 μL. • 8. Measure activity for 10 minutes at λ=340 nm and 37° C.
# T1 sequence (P08581 974-1390 limits assumed): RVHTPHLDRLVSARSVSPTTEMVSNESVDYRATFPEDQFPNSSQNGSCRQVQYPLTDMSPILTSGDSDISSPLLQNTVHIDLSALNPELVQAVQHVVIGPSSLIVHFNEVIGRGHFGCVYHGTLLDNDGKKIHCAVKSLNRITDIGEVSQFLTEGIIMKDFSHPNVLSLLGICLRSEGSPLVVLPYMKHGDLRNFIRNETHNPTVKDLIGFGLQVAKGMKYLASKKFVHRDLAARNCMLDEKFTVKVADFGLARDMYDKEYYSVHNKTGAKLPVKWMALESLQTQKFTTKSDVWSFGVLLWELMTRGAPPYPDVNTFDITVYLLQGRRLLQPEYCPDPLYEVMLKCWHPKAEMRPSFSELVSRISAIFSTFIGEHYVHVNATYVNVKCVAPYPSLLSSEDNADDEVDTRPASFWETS
row,Structure (SMILES),Ki [µM]
1,"CC(Oc1cc(-c2cnn(C3CCN(S(C)(=O)=O)CC3)c2)cnc1N)c1c(Cl)ccc(F)c1Cl (centres unmarked) [Example 50, 3-[1-(2,6-Dichloro-3-fluoro-phenyl)-ethoxy]-5-[1-(1-methanesulfonyl-piperidin-4-yl)-1H-pyrazol-4-yl]-pyridin-2-ylamine]",0.01
2,"CCN(CC)C(=O)C(C)(C)n1cc(-c2cnc(N)c(OC(C)c3c(Cl)ccc(F)c3Cl)c2)cn1 (centres unmarked) [Example 55, 2-(4-{6-Amino-5-[1-(2,6-dichloro-3-fluoro-phenyl)-ethoxy]-pyridin-3-yl}-pyrazol-1-yl)-N,N-diethyl-isobutyramide]",0.396
3,"CC(Oc1cc(-c2cnn(C(C)(C)C(=O)N3CC[C@H](O)C3)c2)cnc1N)c1c(Cl)ccc(F)c1Cl (stereo partly drawn) [Example 56, 2-(4-{6-Amino-5-[1-(2,6-dichloro-3-fluoro-phenyl)-ethoxy]-pyridin-3-yl}-pyrazol-1-yl)-1-((S)-3-hydroxy-pyrrolidin-1-yl)-2-methyl-propan-1-one]",0.47
4,"CC(Oc1cc(-c2cnn(C(C)(C)C(=O)N3CCCC3)c2)cnc1N)c1c(Cl)ccc(F)c1Cl (centres unmarked) [Example 57, 2-(4-{6-Amino-5-[1-(2,6-dichloro-3-fluoro-phenyl)-ethoxy]-pyridin-3-yl}-pyrazol-1-yl)-2-methyl-1-pyrrolidin-1-yl-propan-1-one]",0.425
5,"CC(Oc1cc(-c2cnn(C(C)(C)C(=O)N(C)C)c2)cnc1N)c1c(Cl)ccc(F)c1Cl (centres unmarked) [Example 58, 2-(4-{6-Amino-5-[1-(2,6-dichloro-3-fluoro-phenyl)-ethoxy]-pyridin-3-yl}-pyrazol-1-yl)-N,N-dimethyl-isobutyramide]",0.125
6,"CC(Oc1cc(-c2cnn(C(C)(C)CO)c2)cnc1N)c1c(Cl)ccc(F)c1Cl (centres unmarked) [Example 59, 2-(4-{6-Amino-5-[1-(2,6-dichloro-3-fluoro-phenyl)-ethoxy]-pyridin-3-yl}-pyrazol-1-yl)-2-methyl-propan-1-ol]",0.014
7,"CC(Oc1cc(-c2cnn(C(C)(C)CN(C)C)c2)cnc1N)c1c(Cl)ccc(F)c1Cl (centres unmarked) [Example 60, 3-[1-(2,6-Dichloro-3-fluoro-phenyl)-ethoxy]-5-[1-(2-dimethylamino-1,1-dimethyl-ethyl)-1H-pyrazol-4-yl]-pyridin-2-ylamine]",0.084
8,"CC(Oc1cc(-c2cnn(C(C)(C)CN3CC[C@H](O)C3)c2)cnc1N)c1c(Cl)ccc(F)c1Cl (stereo partly drawn) [Example 61, (S)-1-[2-(4-{6-Amino-5-[1-(2,6-dichloro-3-fluoro-phenyl)-ethoxy]-pyridin-3-yl}-pyrazol-1-yl)-2-methyl-propyl]-pyrrolidin-3-ol]",0.07
9,"CC(Oc1cc(-c2cnn(C(C)(C)COCCN3CCCC3)c2)cnc1N)c1c(Cl)ccc(F)c1Cl (centres unmarked) [Example 62, 3-[1-(2,6-Dichloro-3-fluoro-phenyl)-ethoxy]-5-{1-[1,1-dimethyl-2-(2-pyrrolidin-1-yl-ethoxy)-ethyl]-1H-pyrazol-4-yl}-pyridin-2-ylamine]",0.229
10,"CC(Oc1cc(-c2cnn(C[C@H]3CCCN3)c2)cnc1N)c1c(Cl)ccc(F)c1Cl (stereo partly drawn) [Example 63, 3-[1-(2,6-Dichloro-3-fluoro-phenyl)-ethoxy]-5-(1-(R)-1-pyrrolidin-2-ylmethyl-1H-pyrazol-4-yl)-pyridin-2-ylamine]",0.072
11,"CC(Oc1cc(-c2cnn(C[C@@H]3CCCN3)c2)cnc1N)c1c(Cl)ccc(F)c1Cl (stereo partly drawn) [Example 64, 3-[1-(2,6-Dichloro-3-fluoro-phenyl)-ethoxy]-5-(i-(S)-1-pyrrolidin-2-ylmethyl-1H-pyrazol-4-yl)-pyridin-2-ylamine]",0.0415
12,"C[C@@H](Oc1nc(-c2cnn(C3CCNCC3)c2)cnc1N)c1c(Cl)ccc(F)c1Cl [Example 66, 3-[(R)-1-(2,6-Dichloro-3-fluoro-phenyl)-ethoxy]-5-(1-piperidin-4-yl-1H-pyrazol-4-yl)-pyrazin-2-ylamine]",0.01

# Results, then the compound that gave them:
row,Ki [µM],Structure (SMILES)
1,0.065,"C[C@@H](Oc1nc(-c2cn[nH]c2)cnc1N)c1c(Cl)ccc(F)c1Cl [Example 67, 3-[(R)-1-(2,6-Dichloro-3-fluoro-phenyl)-ethoxy]-5-(1H-pyrazol-4-yl)-pyrazin-2-ylamine]"
2,0.015,"C[C@@H](Oc1nc(-c2cnn(C3CCN(C(=O)CO)CC3)c2)cnc1N)c1c(Cl)ccc(F)c1Cl [Example 68, 1-[4-(4-{5-Amino-6-[(R)-1-(2,6-dichloro-3-fluoro-phenyl)-ethoxy]-pyrazin-2-yl}-pyrazol-1-yl)-piperidin-1-yl]-2-hydroxy-ethanone]"
3,0.03,"C[C@@H](Oc1nc(-c2cnn(C3CCN(C)CC3)c2)cnc1N)c1c(Cl)ccc(F)c1Cl [Example 69, 3-[(R)-1-(2,6-Dichloro-3-fluoro-phenyl)-ethoxy]-5-[1-(1-methyl-piperidin-4-yl)-1H-pyrazol-4-yl]-pyrazin-2-ylamine]"
4,0.015,"C[C@@H](Oc1nc(-c2cnn(C3CCN(C(=O)CN(C)C)CC3)c2)cnc1N)c1c(Cl)ccc(F)c1Cl [Example 70, 1-[4-(4-{5-Amino-6-[(R)-1-(2,6-dichloro-3-fluoro-phenyl)-ethoxy]-pyrazin-2-yl}-pyrazol-1-yl)-piperidin-1-yl]-2-dimethylamino-ethanone]"
5,0.17,"CC(Oc1cc(-c2cnn(S(C)(=O)=O)c2)cnc1N)c1c(Cl)ccc(F)c1Cl (centres unmarked) [Example 71, 3-[1-(2,6-Dichloro-3-fluoro-phenyl)-ethoxy]-5-(1-methanesulfonyl-1H-pyrazol-4-yl)-pyridin-2-ylamine]"
6,0.09,"C[C@@H](Oc1cc(-c2cnn(C3CCNCC3)c2)cnc1N)c1c(F)ccc(F)c1Cl [Example 72, 3-[(R)-1-(2-Chloro-3,6-difluoro-phenyl)-ethoxy]-5-(1-piperidin-4-yl-1H-pyrazol-4-yl)-pyridin-2-ylamine]"
7,0.055,"CNCCn1cc(-c2cnc(N)c(OC(C)c3c(Cl)ccc(F)c3Cl)c2)cn1 (centres unmarked) [Example 73, 3-[1-(2,6-Dichloro-3-fluoro-phenyl)-ethoxy]-5-[1-(2-methylamino-ethyl)-1H-pyrazol-4-yl]-pyridin-2-ylamine]"
8,0.038,"CC(Oc1cc(-c2ccn(C3CCNCC3)n2)cnc1N)c1c(Cl)ccc(F)c1Cl (centres unmarked) [Example 75, 3-[1-(2,6-Dichloro-3-fluoro-phenyl)-ethoxy]-5-(1-piperidin-4-yl-1H-pyrazol-3-yl)-pyridin-2-ylamine]"
9,1.92,"Cc1ccn(-c2cnc(N)c(OC(C)c3c(Cl)ccc(F)c3Cl)c2)n1 (centres unmarked) [Example 77, 3-[1-(2,6-Dichloro-3-fluoro-phenyl)-ethoxy]-5-(3-methyl-pyrazol-1-yl)-pyridin-2-ylamine]"
10,1.56,"CC(Oc1cc(-n2ncc3ccccc32)cnc1N)c1c(Cl)ccc(F)c1Cl (centres unmarked) [Example 78, 3-[1-(2,6-Dichloro-3-fluoro-phenyl)-ethoxy]-5-indazol-1-yl-pyridin-2-ylamine]"

# Same assay, conditions: test concentration not given
row,c-Met % Inhibition [%],Structure (SMILES)
1,21,"Nc1ncc(-c2cn[nH]c2)cc1OC1CCCCc2ccc(F)cc21 (centres unmarked) [Example 54, 3-(3-Fluoro-6,7,8,9-tetrahydro-5H-benzocyclohepten-5-yloxy)-5-(1H-pyrazol-4-yl)-pyridin-2-ylamine]"
